Measured values as given in PubChem BioAssay (NCI).
Where “and” joins values, the source holds several entries; their conditions need not be identical. Equal values may be shown once.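 These data come from cells grown in 96-well plates and exposed to compound for 48 hours at five concentrations. Definition used: TGI = concentration required for complete inhibition of growth.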

Legend:
Experiment in all cases: NCI anticancer screen, dose series, 48 h
[1] = test system: CCRF-CEM leukemia
[2] = test system: BT-549 breast
[3] = test system: UACC-62 melanoma
[4] = test system: HCT-15 colon
[5] = test system: LOX IMVI melanoma
[6] = test system: U251 CNS
[7] = test system: RPMI-8226 leukemia
[8] = test system: PC-3 prostate
[9] = test system: SNB-19 CNS
[10] = test system: MCF7 breast

SMILES | TGI [1] | TGI [2] | TGI [3] | TGI [4] | TGI [5] | TGI [6] | TGI [7] | TGI [8] | TGI [9] | TGI [10]
C=C1CC2C[C@H](OS(=O)(=O)c3ccc(C)cc3)C(C1)N2C (stereo partly specified) | > 100 µM | > 100 µM | > 100 µM | > 100 µM | > 100 µM | > 100 µM | > 100 µM | > 100 µM | > 100 µM | > 100 µM
Cc1cnc2[nH]c(-c3sccc3C)cc(=O)c2c1 | > 100 µM | > 100 µM | > 54.3 µM | > 100 µM | > 100 µM | > 100 µM | > 100 µM | > 100 µM | > 40.8 µM | > 100 µM
CN1C(=O)[C@](C)(Cc2ccc(F)cc2)N(C(=O)OC(C)(C)C)[C@@H]1C(C)(C)C | > 100 µM | > 100 µM | > 100 µM | > 100 µM | 53 µM | > 100 µM | 49.4 µM | > 100 µM | > 100 µM | 59.3 µM
Nc1nc(Cl)cc(NCC2CC(O)(CO)C2)n1 (stereo unspecified) | > 100 µM | > 100 µM | > 100 µM | > 100 µM | > 100 µM | > 100 µM | > 100 µM | > 100 µM |  | > 100 µM
CC1CC/C(=C\c2ccc(F)cc2)C2=C1C(c1ccc(F)cc1)NC(=S)N2 (stereo unspecified) | > 100 µM | > 100 µM | > 100 µM | > 100 µM | > 100 µM | > 100 µM | > 100 µM | > 100 µM | > 100 µM | > 100 µM
COc1ccc(OC)c([N+](=O)[O-])c1-c1nc2sc(C)cn2c1/C=N/N=C(N)N | > 100 µM | 41.9 µM | 69.3 µM | > 100 µM | > 100 µM | > 100 µM | > 100 µM | > 100 µM |  | > 100 µM
CSC(=N/N=C(\C)c1ccc(S(=O)(=O)N(C)c2ccccc2)cc1)SC | > 95.2 µM | > 100 µM | > 100 µM | > 100 µM | > 100 µM | > 100 µM | > 100 µM | > 100 µM | > 100 µM | > 100 µM
O=C(Nc1ccccc1C(=O)O)C(=Cc1ccccc1O)NC(=O)c1ccccc1 | > 100 µM | > 100 µM | > 100 µM | > 100 µM | > 100 µM | > 100 µM | > 100 µM | > 100 µM | > 100 µM | > 100 µM
O=C(O)CCC(NC(=O)/C(=C/c1ccccc1)NC(=O)c1ccccc1)C(=O)O (stereo unspecified) | > 100 µM | > 100 µM | > 100 µM | > 100 µM | > 100 µM |  | > 100 µM | > 100 µM | > 100 µM | > 100 µM
CCOC(=O)CCN1C(=O)c2c(NC(=O)C(=O)O)cccc2S1(=O)=O | > 100 µM | > 100 µM | > 100 µM | > 100 µM | > 100 µM | > 100 µM | > 100 µM | > 100 µM | > 100 µM | > 100 µM
COc1cc2c3c4[n+](cc2c(OC)c1OC)CCC4CCC3 (stereo unspecified) | > 100 µM | > 100 µM | > 100 µM | > 100 µM | > 100 µM | > 100 µM | > 100 µM | > 100 µM | > 100 µM | > 100 µM
NC(=O)c1ccc(S(=O)(=NS(=O)(=O)c2ccccc2)c2ccc(C(N)=O)cc2)cc1 | > 100 µM | > 100 µM | > 100 µM | > 100 µM | > 100 µM | > 100 µM | > 100 µM | > 100 µM | > 100 µM | > 100 µM
O=C1CCc2c(sc3ncnc(Nc4cccc(Br)c4)c23)C1 | 4.38 µM | 13.9 µM | 11.1 µM | 12.4 µM | 12.9 µM | 9.02 µM | > 20.3 µM | 10.3 µM | 19.2 µM | 22.3 µM
Cc1nc(C)c(C(=O)NNC(=O)c2ccccc2)cc1C(=O)NNC(=O)c1ccccc1 | > 100 µM | > 100 µM | > 100 µM | > 100 µM | > 100 µM | > 100 µM | > 100 µM | > 100 µM | > 100 µM | > 100 µM
CC(=O)OC1COC(n2c(N)c(C#N)c(-c3ccccc3)c(C#N)c2=S)C(OC(C)=O)C1OC(C)=O (stereo unspecified) | 67.7 µM and > 100 µM | 71.8 µM and 62.9 µM | > 100 µM | > 100 µM | 79 µM and 76.7 µM | > 100 µM | 58.7 µM and 68.3 µM | > 100 µM | > 100 µM | > 100 µM
CC1=NNC(N)=N/C1=C\C(Sc1ccc(Cl)cc1)c1ccc(Cl)cc1Cl (stereo unspecified) | 7.62 µM | 55.7 µM | > 51.9 µM | 30.4 µM | > 49.4 µM | > 57.1 µM | 61.2 µM | 26.4 µM | 32.8 µM | 16.4 µM
O=C1CSC2=NC3=C(COC/C3=C\c3ccc(F)cc3)C(c3ccc(F)cc3)N12 (stereo unspecified) | 74.5 µM | > 100 µM | > 100 µM | > 100 µM | > 100 µM | > 100 µM | > 100 µM | > 100 µM | > 100 µM | > 100 µM
C[C@@H]1CC(=O)[C@@]2(C)[C@](O)(CCC3O[C@]32C)[C@@]12CC(c1ccoc1)OC2=O (stereo partly specified) | 59.8 µM | > 100 µM | > 100 µM | > 100 µM | > 100 µM | > 100 µM | > 100 µM | > 100 µM | > 100 µM | > 100 µM
CCOC(=O)CCC1(C(=O)O[C@@H]2C[C@H](C)CC[C@H]2C(C)C)CCCCC1=O (stereo partly specified) | > 100 µM | > 100 µM | > 100 µM | > 100 µM | > 100 µM | > 100 µM | > 100 µM | > 100 µM | > 100 µM | > 100 µM
COc1ccc(-c2nc3ncccn3c2-c2ccc(S(C)(=O)=O)cc2)cc1 | > 100 µM | > 100 µM | > 100 µM | > 100 µM | > 100 µM | > 100 µM | > 100 µM | > 100 µM | > 100 µM | 81.8 µM
O=C1CSC(c2cc3cc(Br)ccc3nc2Cl)N1c1ccc(F)c(Cl)c1 (stereo unspecified) | > 50 µM | > 50 µM | > 50 µM | > 50 µM | > 50 µM |  | > 50 µM | > 50 µM | > 50 µM | > 50 µM
